According to patent publication US20220162215A1, “COMPOSITIONS AND METHODS OF USING THE SAME FOR TREATMENT OF NEURODEGENERATIVE AND MITOCHONDRIAL DISEASE” (MITOKININ, INC., priority 2019, published 2022):
Values after ≈ are worked out from the molar mass of the structure shown. Where two headings read alike, the source gives them in different places.

How the values were obtained:
HeLa MKYP cells [1] = assay: Human mitophagy assay (HeLa MKYP, mtKeima FACS, FCCP/oligomycin); type: cell-based
Method: (§1) Briefly, HeLa MKYP cells were plated at 10,000 cells/well in 96 well plates along with compounds at various concentrations. Following 16 hrs of incubation, cells were treated with 1 uM FCCP/oligomycin for 6 hours, then analyzed via FACS for the presence of mitochondria in lysosomes (as determined by an emissions spectrum shift from the pH-sensitive mtKeima tag). Examples are shown in FIG. 1 through FIG. 13 below.

HeLa MKYP cells [2] = assay: Toxicity / cell death measured by DAPI staining (take-up); type: cell-based; conditions: for Toxicity (% positive for DAPI takeup @ 50 μM): Table 3; for Toxicity (% positive for DAPI take-up at 50 μM)*: Table 3 Supplement A; for Max cell death at 25 uM compound, 1 uM FO / Cell death at 25 μM (no FO): Table 3 Supplement B
Method: H2O2 treatment was performed as a control for cell death as measured by DAPI staining.
as §1, with “tag).” for “tag). Examples are shown in FIG. 1 through FIG. 13 below.”

mitotoxicity = assay: Mitotox safety margin (therapeutic window); type: cell-based; conditions: for Mitotox safety margin (Therapeutic window): class of the Ratio; for Ratio**: highest concentration with no observable mitotoxicity (μM) divided by the EC50 (μM) of the compound
Solubility in 1× PBS = type: physicochemical
[3] = Visual inspection of crystallization; type: physicochemical; parameters: key: 1: yes crystals; 0: no crystals; conditions: Tables 5A-5D
Method: (§2) Briefly, the Hela MKYP (Mito-Keima/YFP-Parkin) cells were seeded at 10K cells/well. EP/MTK compounds were added at seeding (cells were still in suspension). The cells were incubated with the EP/MTK compounds for 16 hours, then 1 μM FCCP/oligomycin was added for 6 hours. Prior to harvesting, cells were scored by eye under 20× magnification for the presence or absence of crystalline or aggregated compound, or round cells.

[4] = test system: Hela MKYP (Mito-Keima/YFP-Parkin) cells; assay: Inspection of round cells; conditions: Tables 6A-6D
Method: as §2

[5] = Homo sapiens, HeLa, Table 3, read-out: Potency at 1 μM F/O toxin* (EC50 of mitophagy activation)
[6] = Homo sapiens, HeLa, Table 3 Supplement A, as measured in Table 3, read-out: Potency (EC50 Max Mitophagy) (μM)*
[7] = Homo sapiens, HeLa, Table 3 Supplement B, read-out: Mitophagy EC50 (HeLa mKeima assay)
[8] = Table 3, read-out: Potency at 1 μM F/O toxin* (EC50 of mitophagy activation)

| Compound | EC50 (HeLa MKYP cells [1]; [5]) | EC50 (HeLa MKYP cells [1]; [7]) | Toxicity (% positive for DAPI takeup @ 50 μM) (HeLa MKYP cells [2]) | Max cell death at 25 uM compound, 1 uM FO (HeLa MKYP cells [2]) | Cell death at 25 μM (no FO) (HeLa MKYP cells [2]) | solubility (Solubility in 1× PBS) | other results |
| --- | --- | --- | --- | --- | --- | --- | --- |
| FC(F)(F)c1cc2c(N[C@@H]3CCOc4ccccc43)ncnc2[nH]1 [Compound 37] | 6.3 µM | 6.25 µM | 21.1% | 21% | 3.04% | 150 µM (≈ 50.1 µg/mL) | EC50 (HeLa MKYP cells [1]; [6]): 6.28 µM; Toxicity (% positive for DAPI take-up at 50 μM)* (HeLa MKYP cells [2]): 21.05%; Mitotox safety margin (Therapeutic window) (mitotoxicity): + (ratio <10); Ratio** (mitotoxicity): 8.85 |
| CC(Nc1ncnc2[nH]cnc12)c1ccccc1 (centres unmarked) [Compound 71] | 3.5 µM | – | 18.2% | – | – | – | EC50 (HeLa MKYP cells [1]; [6]): 2.69 µM; Toxicity (% positive for DAPI take-up at 50 μM)* (HeLa MKYP cells [2]): 22.24%; Visual inspection of crystallization ([3]; 1.6 μM): 0; Visual inspection of crystallization ([3]; 3.1 μM): 0; Visual inspection of crystallization ([3]; 6.3 μM): 0; Visual inspection of crystallization ([3]; 12.5 μM): 0; Visual inspection of crystallization ([3]; 25.0 μM): 0; Visual inspection of crystallization ([3]; 50.0 μM): 0; Inspection of round cells ([4]; 1.6 μM): 0; Inspection of round cells ([4]; 3.1 μM): 0; Inspection of round cells ([4]; 6.3 μM): 0; Inspection of round cells ([4]; 12.5 μM): 0; Inspection of round cells ([4]; 25.0 μM): 0; Inspection of round cells ([4]; 50.0 μM): 0 |
| CN1CC[C@H](Nc2ncnc3[nH]c(C(F)(F)F)cc23)c2ccccc21 [Compound 81] | – | 1.33 µM | 59.0% | 16% | 2.51% | 74.8 µM (≈ 26 µg/mL) | EC50 (HeLa MKYP cells [1]; [8]): 1.7 µM; Mitotox safety margin (Therapeutic window) (mitotoxicity): ++++ (ratio 30<); Ratio** (mitotoxicity): 30 |
| O[C@H]1Cc2ccccc2[C@H]1Nc1ncnc2[nH]c(C(F)(F)F)cc12 [Compound 83] | > 50 µM | – | 21.2% | 21.2% | 2.75% | 194 µM (≈ 64.9 µg/mL) | Mitophagy EC50 (HeLa mKeima assay) (HeLa MKYP cells [1]; Table 3 Supplement B): Minimal activity |
| O[C@@H]1Cc2ccccc2[C@@H]1Nc1ncnc2[nH]c(C(F)(F)F)cc12 [Compound 84] | 9 µM | 9.04 µM | 35.6% | 35.6% | 5.5% | 194 µM (≈ 64.9 µg/mL) | – |
| C[C@H]1CCc2ccccc2[C@H]1Nc1ncnc2[nH]c(C(F)(F)F)cc12 [Compound 85] | – | 1.08 µM | 31.4% | – | – | – | EC50 (HeLa MKYP cells [1]; [8]): 1.1 µM; Max cell death at 25 uM compound, 1 uM FO (HeLa MKYP cells [2]; listed as EP-0037094): 31.4%; Cell death at 25 μM (no FO) (HeLa MKYP cells [2]; listed as EP-0037094): 7.13%; Mitotox safety margin (Therapeutic window) (mitotoxicity): + (ratio <10); Ratio** (mitotoxicity): 7.74 |
| COc1ccc2c(c1)[C@@H](Nc1ncnc3[nH]c(C(F)(F)F)cc13)CCC2 [Compound 86] | – | – | 3.2% | – | – | 1.2 µM (≈ 0.435 µg/mL) | EC50 (HeLa MKYP cells [1]; [8]): 4 µM; EC50 (HeLa MKYP cells [1]; Table 3 Supplement B, listed as EP-0037130, read-out: Mitophagy EC50 (HeLa mKeima assay)): 3.99 µM; Max cell death at 25 uM compound, 1 uM FO (HeLa MKYP cells [2]; listed as EP-0037130): 3.18%; Cell death at 25 μM (no FO) (HeLa MKYP cells [2]; listed as EP-0037130): 1.18% |
| COc1ccc2c(c1)[C@@H](Nc1ncnc3[nH]c(C(F)(F)F)cc13)CCC2 [Compound 87] | – | – | 5.9% | – | – | 1.2 µM (≈ 0.435 µg/mL) | EC50 (HeLa MKYP cells [1]; [8]): 9.5 µM; EC50 (HeLa MKYP cells [1]; Table 3 Supplement B, listed as EP-0037131, read-out: Mitophagy EC50 (HeLa mKeima assay)): 9.46 µM; Max cell death at 25 uM compound, 1 uM FO (HeLa MKYP cells [2]; listed as EP-0037131): 5.9%; Cell death at 25 μM (no FO) (HeLa MKYP cells [2]; listed as EP-0037131): 1.2% |
| OC1CCc2ccccc2C1Nc1ncnc2[nH]c(C(F)(F)F)cc12 (centres unmarked) [Compound 91] | > 50 µM | – | 12.8% | 12.8% | 3.79% | 1 µM (≈ 0.348 µg/mL) | Mitophagy EC50 (HeLa mKeima assay) (HeLa MKYP cells [1]; Table 3 Supplement B): Minimal activity |
| CC(=O)N1CCC(Nc2ncnc3[nH]c(C(F)(F)F)cc23)c2ccccc21 (centres unmarked) [Compound 93] | – | 17.3 µM | 6.9% | 6.92% | 2.69% | 1.32 µM (≈ 0.495 µg/mL) | – |
| OC[C@H]1CCc2ccccc2[C@@H]1Nc1ncnc2[nH]c(C(F)(F)F)cc12 [Compound 95] | 5.5 µM | 5.55 µM | 30.9% | 30.87% | 9.83% | 9.07 µM (≈ 3.29 µg/mL) | – |
| CO[C@@H]1COc2ccccc2[C@@H]1Nc1ncnc2[nH]c(C(F)(F)F)cc12 [Compound 96] | 1.6 µM | 1.63 µM | 12.1% | 12.11% | 3.4% | 23.8 µM (≈ 8.67 µg/mL) | – |
| CO[C@@H]1COc2ccccc2[C@H]1Nc1ncnc2[nH]c(C(F)(F)F)cc12 [Compound 97] | 6.3 µM | 6.32 µM | 10.6% | 10.645% | 2.61% | 16.4 µM (≈ 5.97 µg/mL) | – |
| CO[C@H]1COc2ccccc2[C@@H]1Nc1ncnc2[nH]c(C(F)(F)F)cc12 [Compound 98] | – | – | 15.9% | – | – | 16.3 µM (≈ 5.94 µg/mL) | EC50 (HeLa MKYP cells [1]; Table 3 Supplement B, listed as EP-0037863, read-out: Mitophagy EC50 (HeLa mKeima assay)): 4 µM; Max cell death at 25 uM compound, 1 uM FO (HeLa MKYP cells [2]; listed as EP-0037863): 15.865%; Cell death at 25 μM (no FO) (HeLa MKYP cells [2]; listed as EP-0037863): 3.66% |
| CO[C@H]1COc2ccccc2[C@H]1Nc1ncnc2[nH]c(C(F)(F)F)cc12 [Compound 99] | 13.3 µM | 13.3 µM | 3.6% | 3.555% | 2.49% | 20.9 µM (≈ 7.61 µg/mL) | – |
| C[C@H]1CCc2ccccc2[C@H]1Nc1ncnc2[nH]c(C(F)(F)F)cc12 [Compound 101] | – | – | 12.0% | – | – | – | EC50 (HeLa MKYP cells [1]; [8]): > 50 µM; Mitophagy EC50 (HeLa mKeima assay) (HeLa MKYP cells [1]; Table 3 Supplement B): Minimal activity; Max cell death at 25 uM compound, 1 uM FO (HeLa MKYP cells [2]; listed as EP-0037881): 12%; Cell death at 25 μM (no FO) (HeLa MKYP cells [2]; listed as EP-0037881): 6.45%; solubility (Solubility in 1× PBS; aqueous buffer): 7.79 µM (≈ 2.7 µg/mL) |
| C[C@@H]1CCc2ccccc2[C@H]1Nc1ncnc2[nH]c(C(F)(F)F)cc12 [Compound 103] | 4.2 µM | 4.18 µM | 23.8% | 23.8% | 17.9% | 1 µM (≈ 0.346 µg/mL) | – |
| CO[C@H]1COc2ccccc2[C@@H]1Nc1ncnc2[nH]c(C(F)(F)F)cc12 [Compound 104] | – | – | 7.7% | – | – | – | EC50 (HeLa MKYP cells [1]; [8]): 1.5 µM; EC50 (HeLa MKYP cells [1]; Table 3 Supplement B, listed as EP-0037962, read-out: Mitophagy EC50 (HeLa mKeima assay)): 1.48 µM; Max cell death at 25 uM compound, 1 uM FO (HeLa MKYP cells [2]; listed as EP-0037962): 7.67%; Cell death at 25 μM (no FO) (HeLa MKYP cells [2]; listed as EP-0037962): 5.15%; solubility (Solubility in 1× PBS; aqueous buffer): 1.31 µM (≈ 0.477 µg/mL) |
| CO[C@@H]1CCc2ccccc2[C@H]1Nc1ncnc2[nH]c(C(F)(F)F)cc12 [Compound 105] | – | 22.1 µM | 18.4% | 18.4% | 15.3% | 1 µM (≈ 0.362 µg/mL) | – |
| CN(C)[C@H]1CCc2ccccc2[C@@H]1Nc1ncnc2[nH]c(C(F)(F)F)cc12 [Compound 108] | > 50 µM | 0.81 µM | 79.3% | 79.29% | 4.33% | 190 µM (≈ 71.3 µg/mL) | – |
| Fc1ccc2c(c1)CCCC2Nc1ncnc2[nH]c(C(F)(F)F)cc12 (centres unmarked) [Compound 109] | > 50 µM | 1.06 µM | 30.1% | 30.1% | 3.27% | 1 µM (≈ 0.35 µg/mL) | – |
| Oc1ccc2c(c1)CCC[C@H]2Nc1ncnc2[nH]c(C(F)(F)F)cc12 [Compound 110] | 4.4 µM | 4.38 µM | 11.0% | 11% | 3.32% | 102 µM (≈ 35.5 µg/mL) | – |
